Experimental data taken from patent publication US20030091620A1, “Transdermal drug delivery systems containing quaternary ammonium salts and methods of using the same” (priority 1999, published 2003).
Read-outs that look alike come from different tables or passages of the source.

Experiments:
[1] = tested on: bacterial count on the skin; details: cited from earlier work
E3 organism [2] = experiment: Zone of Inhibition testing of paper discs saturated with aqueous antimicrobial solutions; format: cell-based, gram-positive, coagulase-negative cocci
Experimental: In this experiment, the effectiveness of various topical antimicrobial agents against the E3 organism was determined using Zone of Inhibition testing of paper discs saturated with aqueous antimicrobial solutions.

E3 organism [3] = experiment: Zone of Inhibition testing of antimicrobial-loaded transdermal matrix disks; format: cell-based, gram-positive, coagulase-negative cocci
Experimental: These patches were cut into 1 cm^2 disks and subjected to Zone of Inhibition testing against the E3 organism with 24-hour incubation.
In the next experiment, placebo matrix patches (18 cm^2 area) were manufactured for a clinical wear study.

[4] = In vitro skin flux from PSA matrix patches and hydroalcoholic gels (modified Franz diffusion cells); details: 24-hour skin flux of the drug from Morstick 214 PSA patch with 1% BzthCl, relative to 0% enhancer
Experimental: In vitro skin flux studies were conducted on epidermal membranes (stratum corneum and epidermis) obtained from whole human cadaver skin (epidermal membrane and dermis) by the heat-separation method of Kligman & Christopher, 88 Arch. […] This method consists of immersion of the whole skin for 60 seconds in water at 60° C., followed by mechanical separation of the epidermal and dermal layers. After separation, the epidermal membrane is stored in aluminum foil at −5° C. until use.
Skin flux experiments were conducted in two-compartment glass diffusion cells with a modified Franz design. The receiver compartment was filled with water or an aqueous buffer appropriate to maintain sink conditions for the drug. All receiver media included 0.02% (w/w) sodium azide to inhibit bacterial growth. […]
At predetermined sampling intervals, the entire volume of the receiver compartment solution was collected for drug quantification, and the receiver compartment was filled with fresh receiver solution, taking care to eliminate any air bubbles at the skin/solution interface.
Receiver solution samples were analyzed for drug content by HPLC with external standards of known drug concentration used for calibration. The cumulative amount of drug permeated per unit area at any time t (Qt, μg/cm^2) was determined according to the following equation: [formula] […]

[5] = in vivo; cited from earlier work
[6] = aqueous solution 2.0% w/w on 0.33 cm^2 paper disks, read-out: Zone of Inhibition

CCO [70% ethanol, ethanol]
time required for the bacterial count on the skin to be decreased by 50% [1]: 36 s
time required to effect a 90% reduction of bacterial count [1]: 2 min

O=C(O)c1ccccc1 [Benzoic Acid]
zone of inhibition at 2 % strength (E3 organism [2]): 10 mm
zone of inhibition at 0.4 % strength (E3 organism [3]; 24 h): < 0 mm

OCc1ccccc1 [Benzyl Alcohol]
zone of inhibition at 2 % strength (E3 organism [2]; [6]): 10 mm

Cl.O=C1CC2(CCCC2)CC(=O)N1CCCCN1CCN(c2ncccn2)CC1 [Buspirone HCI]
% Increase in Q24 [4]: 38 (21%)

COC(=O)c1ccc(O)cc1 [Methyl Paraben]
zone of inhibition at 2 % strength (E3 organism [2]; [6]): 0 mm

benzalkonium chloride
time required for the bacterial count on the skin to be decreased by 50% [1]: 420 s
time required to effect a 90% reduction of bacterial count [1]: 25 min
Zone of Inhibition (E3 organism [2]; aqueous solution 0.4% w/w on 0.33 cm^2 paper disks): 13 mm
skin irritation [5]: severe irritation
Zone of Inhibition (E3 organism [3]; 0.4% w/w in DuroTak 87-2888 adhesive matrix disks, 24-hour incubation): 15 mm
